From ChEMBL document CHEMBL5370608, “Selective and Bioavailable HDAC6 2-(Difluoromethyl)-1,3,4-oxadiazole Substrate Inhibitors and Modeling of Their Bioactivation Mechanism” (J Med Chem, 2023)

Key:
THP-1 = experiment: Cytotoxicity against human THP-1 cells assessed as reduction in cell viability by alamar blue staining based assay; type: functional
Histone deacetylase 1 = Histone deacetylase 1 (Homo sapiens, UniProt Q13547); experiment: Inhibition of human recombinant HDAC1 incubated for 15 mins by fluorimetry analysis
Sequence of Histone deacetylase 1 (Q13547 whole entry): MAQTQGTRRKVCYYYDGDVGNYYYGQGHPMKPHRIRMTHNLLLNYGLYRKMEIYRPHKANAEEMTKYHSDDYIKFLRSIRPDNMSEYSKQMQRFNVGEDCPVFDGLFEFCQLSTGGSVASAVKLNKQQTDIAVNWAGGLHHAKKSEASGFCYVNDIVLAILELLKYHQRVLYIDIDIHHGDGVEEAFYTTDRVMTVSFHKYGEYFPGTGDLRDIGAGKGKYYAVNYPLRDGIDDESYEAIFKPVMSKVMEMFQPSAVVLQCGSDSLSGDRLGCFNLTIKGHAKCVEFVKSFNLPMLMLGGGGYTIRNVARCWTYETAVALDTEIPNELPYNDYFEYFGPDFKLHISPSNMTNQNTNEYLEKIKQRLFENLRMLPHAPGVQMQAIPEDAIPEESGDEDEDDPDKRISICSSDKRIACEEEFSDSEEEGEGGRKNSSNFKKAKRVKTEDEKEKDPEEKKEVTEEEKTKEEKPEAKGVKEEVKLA

Histone deacetylase 3 = Histone deacetylase 3 (Homo sapiens, UniProt O15379); experiment: Inhibition of human recombinant HDAC3 incubated for 10 mins by Spectrophotometric analysis
Sequence of Histone deacetylase 3 (O15379 whole entry): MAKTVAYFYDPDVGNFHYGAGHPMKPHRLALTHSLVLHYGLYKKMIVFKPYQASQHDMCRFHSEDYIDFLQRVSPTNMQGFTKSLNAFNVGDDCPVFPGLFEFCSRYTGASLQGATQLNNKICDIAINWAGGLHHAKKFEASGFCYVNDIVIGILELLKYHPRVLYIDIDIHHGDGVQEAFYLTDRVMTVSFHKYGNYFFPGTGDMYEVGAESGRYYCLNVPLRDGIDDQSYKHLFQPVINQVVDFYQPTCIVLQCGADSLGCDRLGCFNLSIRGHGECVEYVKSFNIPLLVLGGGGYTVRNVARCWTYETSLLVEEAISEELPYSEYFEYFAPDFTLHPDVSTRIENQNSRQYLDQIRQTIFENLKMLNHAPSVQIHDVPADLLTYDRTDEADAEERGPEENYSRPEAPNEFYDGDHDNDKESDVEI

Histone deacetylase 7 = molecular target: T1, Histone deacetylase 7 (Homo sapiens, UniProt Q8WUI4); experiment: Inhibition of human recombinant HDAC7 incubated for 30 mins by fluorimetry analysis
T1 sequence (Q8WUI4 whole entry): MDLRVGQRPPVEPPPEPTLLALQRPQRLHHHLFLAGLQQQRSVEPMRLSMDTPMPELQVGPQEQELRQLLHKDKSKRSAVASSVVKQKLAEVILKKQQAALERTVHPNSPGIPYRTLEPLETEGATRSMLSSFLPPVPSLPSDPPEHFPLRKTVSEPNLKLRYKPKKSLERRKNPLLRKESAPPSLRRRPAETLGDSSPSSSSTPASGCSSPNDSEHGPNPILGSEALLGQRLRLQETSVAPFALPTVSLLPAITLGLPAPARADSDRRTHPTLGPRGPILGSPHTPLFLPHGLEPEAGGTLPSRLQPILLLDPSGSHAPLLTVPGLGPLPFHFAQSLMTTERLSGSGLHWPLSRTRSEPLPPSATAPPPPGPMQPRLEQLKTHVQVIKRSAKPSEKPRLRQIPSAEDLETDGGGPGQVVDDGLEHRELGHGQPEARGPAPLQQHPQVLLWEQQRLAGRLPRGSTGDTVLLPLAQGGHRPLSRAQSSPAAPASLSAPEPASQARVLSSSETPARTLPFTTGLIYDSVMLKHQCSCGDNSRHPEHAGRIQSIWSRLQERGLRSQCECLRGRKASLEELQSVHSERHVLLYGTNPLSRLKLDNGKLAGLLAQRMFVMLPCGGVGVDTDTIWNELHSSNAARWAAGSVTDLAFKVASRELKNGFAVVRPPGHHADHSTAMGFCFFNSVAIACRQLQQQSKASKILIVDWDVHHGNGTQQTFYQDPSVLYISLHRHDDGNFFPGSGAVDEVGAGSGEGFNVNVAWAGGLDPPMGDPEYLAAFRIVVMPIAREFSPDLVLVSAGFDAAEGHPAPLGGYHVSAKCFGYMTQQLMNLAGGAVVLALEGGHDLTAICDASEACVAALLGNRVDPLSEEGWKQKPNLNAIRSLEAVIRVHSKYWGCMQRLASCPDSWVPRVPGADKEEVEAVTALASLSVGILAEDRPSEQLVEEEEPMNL

[1] = Metabolic stability in rat hepatocytes assessed as intrinsic clearance at 1 uM measured per 10^6 cells incubated at 2 to 60 mins by LC-MS/MS analysis; type: ADME, cell-based, Hepatocyte; details: time 2-60 min, read-out: CLH
[2] = Metabolic stability in human liver microsomes assessed as disappearance of parent compound; type: ADME, Microsome; details: read-out: CLH
Histone deacetylase 5 = Histone deacetylase 5 (Homo sapiens, UniProt Q9UQL6); experiment: Inhibition of human recombinant HDAC5 incubated for 30 mins by fluorimetry analysis
Sequence of Histone deacetylase 5 (Q9UQL6 whole entry): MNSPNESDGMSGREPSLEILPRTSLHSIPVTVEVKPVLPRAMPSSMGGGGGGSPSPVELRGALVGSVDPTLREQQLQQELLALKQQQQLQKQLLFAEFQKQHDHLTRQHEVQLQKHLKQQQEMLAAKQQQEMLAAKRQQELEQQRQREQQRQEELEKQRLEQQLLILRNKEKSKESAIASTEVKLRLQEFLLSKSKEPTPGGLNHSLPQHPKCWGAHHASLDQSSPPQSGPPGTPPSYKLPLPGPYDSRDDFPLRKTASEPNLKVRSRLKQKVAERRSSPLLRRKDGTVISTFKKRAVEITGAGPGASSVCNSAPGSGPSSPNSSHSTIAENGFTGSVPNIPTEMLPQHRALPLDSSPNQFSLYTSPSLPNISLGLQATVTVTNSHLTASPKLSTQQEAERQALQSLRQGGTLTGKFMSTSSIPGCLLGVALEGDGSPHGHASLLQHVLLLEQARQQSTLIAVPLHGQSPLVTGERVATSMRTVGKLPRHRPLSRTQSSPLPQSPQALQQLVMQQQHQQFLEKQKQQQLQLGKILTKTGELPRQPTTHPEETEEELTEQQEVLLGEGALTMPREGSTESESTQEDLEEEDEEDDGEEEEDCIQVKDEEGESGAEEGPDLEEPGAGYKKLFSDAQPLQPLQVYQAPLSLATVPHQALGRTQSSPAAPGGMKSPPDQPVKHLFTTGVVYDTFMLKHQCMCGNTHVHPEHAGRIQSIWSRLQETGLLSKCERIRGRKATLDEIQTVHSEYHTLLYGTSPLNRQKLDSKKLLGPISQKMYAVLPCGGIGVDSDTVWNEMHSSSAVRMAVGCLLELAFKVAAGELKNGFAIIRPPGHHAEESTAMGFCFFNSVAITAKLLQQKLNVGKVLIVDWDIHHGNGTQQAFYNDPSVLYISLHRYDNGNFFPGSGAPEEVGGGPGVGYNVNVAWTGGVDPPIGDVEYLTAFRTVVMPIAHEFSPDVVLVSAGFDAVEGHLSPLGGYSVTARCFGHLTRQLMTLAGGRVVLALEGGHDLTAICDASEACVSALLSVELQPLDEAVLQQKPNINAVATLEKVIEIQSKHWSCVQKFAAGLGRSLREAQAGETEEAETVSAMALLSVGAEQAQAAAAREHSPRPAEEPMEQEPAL

[3] = Half life in Wistar Han rat at 0.5 mg/kg, iv measured upto 24 hrs by LC-MS/MS analysis; type: ADME, organism-based; details: in vivo
Histone deacetylase 2 = Histone deacetylase 2 (Homo sapiens, UniProt Q92769); experiment: Inhibition of human recombinant HDAC2 incubated for 15 mins by fluorimetry analysis
Sequence of Histone deacetylase 2 (Q92769 whole entry): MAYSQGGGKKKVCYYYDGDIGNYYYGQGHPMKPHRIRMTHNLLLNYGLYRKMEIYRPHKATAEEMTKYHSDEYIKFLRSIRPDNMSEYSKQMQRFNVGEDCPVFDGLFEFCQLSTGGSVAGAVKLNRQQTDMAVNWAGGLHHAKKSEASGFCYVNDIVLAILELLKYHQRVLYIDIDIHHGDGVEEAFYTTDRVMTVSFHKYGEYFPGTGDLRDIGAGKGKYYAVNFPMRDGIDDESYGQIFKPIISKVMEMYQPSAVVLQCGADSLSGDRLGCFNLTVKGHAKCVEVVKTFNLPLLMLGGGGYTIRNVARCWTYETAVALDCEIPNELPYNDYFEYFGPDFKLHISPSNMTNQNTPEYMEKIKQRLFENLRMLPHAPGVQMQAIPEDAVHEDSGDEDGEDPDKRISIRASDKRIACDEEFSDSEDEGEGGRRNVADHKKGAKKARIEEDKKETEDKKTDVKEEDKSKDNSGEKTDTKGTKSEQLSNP

Histone deacetylase 4 = Histone deacetylase 4 (Homo sapiens, UniProt P56524); experiment: Inhibition of human recombinant HDAC4 incubated for 30 mins by fluorimetry analysis
Sequence of Histone deacetylase 4 (P56524 whole entry): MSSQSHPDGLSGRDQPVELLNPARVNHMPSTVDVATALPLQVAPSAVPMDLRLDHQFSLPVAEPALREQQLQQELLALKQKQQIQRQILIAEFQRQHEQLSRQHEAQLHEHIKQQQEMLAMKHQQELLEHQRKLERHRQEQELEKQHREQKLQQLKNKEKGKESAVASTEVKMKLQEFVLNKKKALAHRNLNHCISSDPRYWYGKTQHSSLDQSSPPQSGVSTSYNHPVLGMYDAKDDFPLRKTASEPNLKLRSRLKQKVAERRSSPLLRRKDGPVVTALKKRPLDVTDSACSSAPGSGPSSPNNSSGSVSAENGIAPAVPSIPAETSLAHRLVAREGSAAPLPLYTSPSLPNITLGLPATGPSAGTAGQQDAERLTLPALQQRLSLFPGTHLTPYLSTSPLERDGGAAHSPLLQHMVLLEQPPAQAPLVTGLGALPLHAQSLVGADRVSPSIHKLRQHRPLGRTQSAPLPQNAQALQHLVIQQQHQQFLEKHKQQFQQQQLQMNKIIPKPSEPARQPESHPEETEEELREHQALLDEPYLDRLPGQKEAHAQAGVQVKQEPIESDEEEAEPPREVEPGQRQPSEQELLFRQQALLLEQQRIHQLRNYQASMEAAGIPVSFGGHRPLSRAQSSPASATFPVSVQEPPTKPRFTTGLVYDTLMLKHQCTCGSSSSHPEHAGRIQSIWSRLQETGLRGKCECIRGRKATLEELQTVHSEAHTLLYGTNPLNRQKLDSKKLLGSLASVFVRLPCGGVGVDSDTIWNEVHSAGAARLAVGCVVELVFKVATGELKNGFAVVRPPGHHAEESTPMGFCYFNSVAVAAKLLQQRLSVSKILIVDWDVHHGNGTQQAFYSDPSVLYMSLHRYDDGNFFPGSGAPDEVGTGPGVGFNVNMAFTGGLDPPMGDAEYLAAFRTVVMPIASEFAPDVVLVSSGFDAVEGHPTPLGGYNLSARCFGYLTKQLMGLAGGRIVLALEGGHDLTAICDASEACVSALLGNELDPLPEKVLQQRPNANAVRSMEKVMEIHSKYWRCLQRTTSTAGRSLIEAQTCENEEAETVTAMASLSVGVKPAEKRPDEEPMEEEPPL

[4] = Plasma protein binding in human assessed as unbound fraction; type: ADME, cell-free
[5] = Volume of distribution at steady state in Wistar Han rat at 1 mg/kg, po or 0.5 mg/kg, iv measured upto 24 hrs by LC-MS/MS analysis; type: ADME, organism-based; details: in vivo
[6] = molecular target: T2, Protein deacetylase HDAC6 (Homo sapiens, UniProt Q9UBN7); experiment: Inhibition of HDAC6 in human BEAS-2B cells assessed as deacetylation of acetylated histone-3 level incubated for 24 hrs by Western blot analysis; type: cell-based
T2 sequence (Q9UBN7 whole entry): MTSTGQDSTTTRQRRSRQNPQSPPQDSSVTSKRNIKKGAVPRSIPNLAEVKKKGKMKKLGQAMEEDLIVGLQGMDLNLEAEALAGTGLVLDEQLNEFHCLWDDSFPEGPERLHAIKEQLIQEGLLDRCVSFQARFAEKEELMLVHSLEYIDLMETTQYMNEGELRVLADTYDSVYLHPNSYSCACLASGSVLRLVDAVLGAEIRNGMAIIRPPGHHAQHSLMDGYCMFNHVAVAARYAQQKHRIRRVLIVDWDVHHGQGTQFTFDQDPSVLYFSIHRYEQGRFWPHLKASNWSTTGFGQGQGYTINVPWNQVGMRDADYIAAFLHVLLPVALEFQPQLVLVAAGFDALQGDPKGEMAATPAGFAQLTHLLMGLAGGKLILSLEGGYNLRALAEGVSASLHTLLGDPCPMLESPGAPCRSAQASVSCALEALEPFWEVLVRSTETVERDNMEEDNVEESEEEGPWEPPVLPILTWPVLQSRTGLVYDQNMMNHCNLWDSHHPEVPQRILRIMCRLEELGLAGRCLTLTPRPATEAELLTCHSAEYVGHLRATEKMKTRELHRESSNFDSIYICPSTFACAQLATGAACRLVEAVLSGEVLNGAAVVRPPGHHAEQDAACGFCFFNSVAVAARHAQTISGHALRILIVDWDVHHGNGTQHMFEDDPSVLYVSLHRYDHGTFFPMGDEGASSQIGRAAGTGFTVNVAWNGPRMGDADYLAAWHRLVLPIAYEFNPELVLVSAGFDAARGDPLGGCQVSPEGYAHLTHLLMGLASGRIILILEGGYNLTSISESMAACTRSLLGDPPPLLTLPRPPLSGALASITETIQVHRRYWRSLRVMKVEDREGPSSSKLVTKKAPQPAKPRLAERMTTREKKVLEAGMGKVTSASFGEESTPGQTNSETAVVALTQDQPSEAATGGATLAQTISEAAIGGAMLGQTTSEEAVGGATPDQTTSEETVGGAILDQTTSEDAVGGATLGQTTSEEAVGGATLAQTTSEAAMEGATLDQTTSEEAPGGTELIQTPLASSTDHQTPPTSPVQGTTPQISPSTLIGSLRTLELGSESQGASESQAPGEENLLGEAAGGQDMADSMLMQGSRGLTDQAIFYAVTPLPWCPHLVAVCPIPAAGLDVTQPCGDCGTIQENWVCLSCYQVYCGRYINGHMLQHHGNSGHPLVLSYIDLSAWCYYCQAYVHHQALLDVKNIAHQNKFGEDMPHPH

[7] = Chemical stability of compound in sodium phosphate buffer at pH 7.4 assessed as half life by UPLC analysis; type: physicochemical
[8] = Chemical stability of compound in HCL solution at pH 1 assessed as half life by UPLC analysis; type: physicochemical
[9] = Chemical stability of compound in sodium carbonate buffer at pH 10 assessed as half life by UPLC analysis; type: physicochemical

| IC50 (Histone deacetylase 1) [µM] | IC50 (Histone deacetylase 3) [µM] | IC50 (Histone deacetylase 7) [µM] | hepatocyte CLint at 1 µM [1] [µL/min/1e6 cells] | microsomal CLint [2] [µL/min/mg] | IC50 (Histone deacetylase 5) [µM] | half-life [3] [h] | IC50 (Histone deacetylase 2) [µM] | IC50 (Histone deacetylase 4) [µM] | fraction unbound [4] | Vdss [5] [L/kg] | IC50 [6] [µM] | half-life [7] [h] | half-life [8] [h] | half-life [9] [h] | Structure (SMILES) | IC50 (THP-1; read-out: IC50) [µM] | IC50 (THP-1; read-out: pIC50 (converted)) [µM] |
| --- | --- | --- | --- | --- | --- | --- | --- | --- | --- | --- | --- | --- | --- | --- | --- | --- | --- |
| 17 | 87 | 6.5 | 51 | < 3 | 3.7 | 0.3 | 71 | 12 | 0.23 | 2.2 | > 10 |  |  |  | O=C(NO)c1cnc(NC2(c3ccccc3)CCC(F)(F)CC2)nc1 | 94 | 100 |
| > 100 | > 100 | 30 |  | < 3 | > 100 |  | > 100 | 14 |  |  | > 10 | 221 | 11.8 | 7.2 | CS(=O)(=O)NCC(Nc1ncc(-c2nnc(C(F)F)o2)cn1)c1ccc(OC(F)(F)F)cc1 (stereo unspecified) | 126 | 126 |
| > 100 | > 100 | > 100 |  | < 3 | > 100 |  | > 100 | > 100 |  |  | > 10 |  |  |  | COc1ccccc1-c1nnn(Cc2ccc(-c3nnc(C(F)F)o3)cn2)n1 |  |  |
| > 100 | > 100 | > 100 | < 1 | < 3 | > 100 | 7.3 | > 100 | > 100 | 0.13 | 1.8 | > 10 | 84 | 7.68 | < 13.7 | FC(F)c1nnc(-c2ccc(Cn3nnc(-c4ccccn4)n3)nc2)o1 |  | > 251 |
